The target of one assay is T1, human Kv1.6 (Homo sapiens, UniProt P17658).
T1 construct: expressed in transfected cells; host or cells: CHO
The assay can be described thus: cell-based. As to conditions: ratio of patch clamp IC50 values.

For the next assay, the target named is T2, human Kv1.2 (Homo sapiens, UniProt P16389).
T2 construct: expressed in transfected cells; host or cells: CHO
Nature of the assay: cell-based. To be noted: ratio of patch clamp IC50 values.

For the next assay, the target named is T3, human Kv1.1 (Homo sapiens, UniProt Q09470).
T3 construct: expressed in transfected cells; host or cells: CHO
Nature of the assay: cell-based. As to conditions: ratio of patch clamp IC50 values.

A further assay addresses Rat whole blood (Rattus norvegicus, UniProt P15384). It is filed as cell-based. To be noted: IL-17A release, thapsigargin, 24 Hr, at least 2 replicates.

Where a SMILES comes first, the peptide text is derived from it. Bridges are numbered along the chain shown (N, C = ends). [ ]: non-standard residue; d: D form. Nle = CCCC[C@H](N)C(=O)O

T2 sequence (P16389 whole entry): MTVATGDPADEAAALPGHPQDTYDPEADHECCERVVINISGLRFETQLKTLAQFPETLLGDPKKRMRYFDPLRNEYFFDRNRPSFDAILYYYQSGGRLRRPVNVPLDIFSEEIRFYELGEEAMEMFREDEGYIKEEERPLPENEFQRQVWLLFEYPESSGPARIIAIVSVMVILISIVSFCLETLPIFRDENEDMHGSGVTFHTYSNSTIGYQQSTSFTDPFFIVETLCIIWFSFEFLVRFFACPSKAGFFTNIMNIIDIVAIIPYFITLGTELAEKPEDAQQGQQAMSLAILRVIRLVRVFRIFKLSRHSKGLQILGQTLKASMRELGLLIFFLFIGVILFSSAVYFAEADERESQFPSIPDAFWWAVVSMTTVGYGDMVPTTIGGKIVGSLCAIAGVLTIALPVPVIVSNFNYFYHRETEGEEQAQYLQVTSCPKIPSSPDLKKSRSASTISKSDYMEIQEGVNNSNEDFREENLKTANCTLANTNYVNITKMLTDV
T3 sequence (Q09470 whole entry): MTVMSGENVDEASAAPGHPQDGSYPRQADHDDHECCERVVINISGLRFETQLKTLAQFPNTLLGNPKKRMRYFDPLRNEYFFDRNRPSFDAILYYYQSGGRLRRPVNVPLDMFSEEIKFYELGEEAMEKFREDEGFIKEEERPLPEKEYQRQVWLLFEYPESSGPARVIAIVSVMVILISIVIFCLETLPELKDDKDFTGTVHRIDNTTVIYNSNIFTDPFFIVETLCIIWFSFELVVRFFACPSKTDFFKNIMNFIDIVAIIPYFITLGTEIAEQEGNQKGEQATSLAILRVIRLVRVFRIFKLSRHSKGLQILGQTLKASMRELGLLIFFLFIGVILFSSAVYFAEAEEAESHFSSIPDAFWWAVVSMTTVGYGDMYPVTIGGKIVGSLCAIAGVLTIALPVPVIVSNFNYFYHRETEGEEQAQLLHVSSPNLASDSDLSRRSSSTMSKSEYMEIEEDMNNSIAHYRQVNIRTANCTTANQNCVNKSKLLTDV
T1 sequence (P17658 whole entry): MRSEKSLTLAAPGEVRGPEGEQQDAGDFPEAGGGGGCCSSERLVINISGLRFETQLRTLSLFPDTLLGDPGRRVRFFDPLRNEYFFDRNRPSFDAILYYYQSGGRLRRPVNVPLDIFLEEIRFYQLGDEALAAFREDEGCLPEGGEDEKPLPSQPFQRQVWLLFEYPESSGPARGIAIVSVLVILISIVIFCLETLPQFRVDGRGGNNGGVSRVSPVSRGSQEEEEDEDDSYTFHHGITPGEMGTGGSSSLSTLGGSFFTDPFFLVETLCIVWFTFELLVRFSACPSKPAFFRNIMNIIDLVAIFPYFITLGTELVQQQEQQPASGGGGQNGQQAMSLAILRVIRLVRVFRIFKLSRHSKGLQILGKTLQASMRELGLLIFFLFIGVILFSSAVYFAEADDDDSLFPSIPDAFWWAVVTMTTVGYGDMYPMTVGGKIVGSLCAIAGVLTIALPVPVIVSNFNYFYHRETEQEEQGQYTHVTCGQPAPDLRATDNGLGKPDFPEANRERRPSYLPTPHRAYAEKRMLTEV
Chain of Rat whole blood (P15384 whole entry): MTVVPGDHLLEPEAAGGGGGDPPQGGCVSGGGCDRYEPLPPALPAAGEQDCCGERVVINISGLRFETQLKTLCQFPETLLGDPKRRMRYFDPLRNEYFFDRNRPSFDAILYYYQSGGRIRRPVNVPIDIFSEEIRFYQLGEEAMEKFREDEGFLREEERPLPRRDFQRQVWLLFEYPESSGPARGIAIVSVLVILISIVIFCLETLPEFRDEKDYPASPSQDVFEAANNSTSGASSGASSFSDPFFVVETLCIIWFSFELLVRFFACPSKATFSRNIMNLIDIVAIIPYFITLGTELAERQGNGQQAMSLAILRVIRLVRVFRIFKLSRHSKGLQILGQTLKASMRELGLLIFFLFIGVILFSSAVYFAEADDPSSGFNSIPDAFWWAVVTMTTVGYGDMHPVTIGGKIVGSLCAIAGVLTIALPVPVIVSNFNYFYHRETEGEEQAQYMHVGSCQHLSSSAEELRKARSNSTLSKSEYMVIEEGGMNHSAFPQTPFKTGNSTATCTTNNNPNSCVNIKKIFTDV

Take `CCCC[C@@H]1NC(=O)[C@@H]2CSSC[C@H](NC(=O)[C@@H](N)CCCNC(=N)N)C(=O)N[C@@H](CO)C(=O)N[C@@H](C)C(=O)N[C@@H](CO)C(=O)N[C@@H](C(C)C)C(=O)N[C@@H](CCC(=O)O)C(=O)N[C@H]3CSSC[C@H](NC(=O)[C@H](CCCCN)NC(=O)[C@H](CCCCN)NC(=O)[C@H](CC(N)=O)NC1=O)C(=O)N[C@@H](CCCCN)C(=O)N[C@H](C(=O)N[C@@H](Cc1ccc(O)cc1)C(=O)N1CCC[C@H]1C(=O)N[C@@H](CCCNC(=N)N)C(N)=O)CSSC[C@H](NC(=O)[C@H](CCCCN)NC(=O)[C@H](CCC(N)=O)NC(=O)[C@H](CCCCN)NC3=O)C(=O)N[C@@H](CC(C)C)C(=O)N[C@@H](CCCCN)C(=O)N[C@@H](C)C(=O)N[C@@H]([C@@H](C)CC)C(=O)NCC(=O)N[C@@H](CO)C(=O)N[C@@H]([C@@H](C)CC)C(=O)N[C@@H](Cc1ccccc1)C(=O)NCC(=O)N[C@@H](CCCCN)C(=O)N2` [compound 100] (H-RCSASVECKQKCLKAIGSIFGKC[Nle]NKKCKCYPR-NH2; disulfide 2-23, 8-28, 12-30): at human Kv1.6, the “Selectivity ratio Kv1.6/Kv1.3” value was determined as 3290. The “Selectivity ratio Kv1.2/Kv1.3” value on human Kv1.2 worked out at 708. Further, the “Selectivity ratio Kv1.1/Kv1.3” value on human Kv1.1 is recorded as more than 7600. This compound also returned an IC50 at Rat whole blood of 0.52 nM.
`CC[C@H](C)[C@@H]1NC(=O)[C@H](C)NC(=O)[C@H](CCCCN)NC(=O)[C@H](CCCCN)NC(=O)[C@@H]2CSSC[C@@H](C(=O)N[C@@H](Cc3ccc(O)cc3)C(=O)N3CCC[C@H]3C(=O)N[C@@H](CCCNC(=N)N)C(N)=O)NC(=O)[C@H](CCCCN)NC(=O)[C@@H]3CSSC[C@H](NC(=O)[C@H](CCC(=O)O)NC(=O)[C@H](C(C)C)NC(=O)[C@H](CO)NC(=O)[C@H](C)NC(=O)[C@H](CO)NC(=O)[C@@H](NC(=O)[C@H](CCCNC(=N)N)NC(=O)[C@H](CCSC)NC(=O)[C@H](CC(=O)O)NC(=O)[C@H](CCSC)NC(=O)[C@@H](N)CC(N)=O)CSSC[C@H](NC(=O)[C@H](CCCCN)NC(=O)CNC(=O)[C@H](Cc4ccccc4)NC(=O)[C@H]([C@@H](C)CC)NC(=O)[C@H](CO)NC(=O)CNC1=O)C(=O)N[C@@H](CCSC)C(=O)N[C@@H](CC(N)=O)C(=O)N[C@@H](CCCCN)C(=O)N[C@@H](CCCCN)C(=O)N3)C(=O)N[C@@H](CCCCN)C(=O)N[C@@H](CCC(N)=O)C(=O)N[C@@H](CCCCN)C(=O)N2` [compound 24] (H-NMDMRCSASVECKQKCKKAIGSIFGKCMNKKCKCYPR-NH2; disulfide 6-27, 12-32, 16-34): on human Kv1.6, the “Selectivity ratio Kv1.6/Kv1.3” value is 1955. The “Selectivity ratio Kv1.2/Kv1.3” value on human Kv1.2 worked out at 202. Moreover, the “Selectivity ratio Kv1.1/Kv1.3” value at human Kv1.1 is listed as more than 13500. This compound had an IC50 at Rat whole blood of 0.56 nM.
The matching figures for `CCCC[C@@H]1NC(=O)[C@@H]2CSSC[C@H](NC(=O)[C@H](CCCNC(=N)N)NC(=O)[C@H](CCCC)NC(=O)[C@H](CO)NC(=O)[C@H](CCCC)NC(=O)[C@@H](N)CC(N)=O)C(=O)N[C@@H](CO)C(=O)N[C@@H](C)C(=O)N[C@@H](CO)C(=O)N[C@@H](C(C)C)C(=O)N[C@@H](CCC(=O)O)C(=O)N[C@H]3CSSC[C@H](NC(=O)[C@H](CCCCN)NC(=O)[C@H](CCCCN)NC(=O)[C@H](CC(N)=O)NC1=O)C(=O)N[C@@H](CCCCN)C(=O)N[C@H](C(=O)N[C@@H](Cc1ccc(O)cc1)C(=O)N1CCC[C@H]1C(=O)N[C@@H](CCCNC(=N)N)C(N)=O)CSSC[C@H](NC(=O)[C@H](CCCCN)NC(=O)[C@H](CCC(N)=O)NC(=O)[C@H](CCCCN)NC3=O)C(=O)N[C@@H](CC(C)C)C(=O)N[C@@H](CCCCN)C(=O)N[C@@H](C)C(=O)N[C@@H]([C@@H](C)CC)C(=O)NCC(=O)N[C@@H](CO)C(=O)N[C@@H]([C@@H](C)CC)C(=O)N[C@@H](Cc1ccccc1)C(=O)NCC(=O)N[C@@H](CCCCN)C(=O)N2` [compound 50] (H-N[Nle]S[Nle]RCSASVECKQKCLKAIGSIFGKC[Nle]NKKCKCYPR-NH2; disulfide 6-27, 12-32, 16-34): 4359, 943, more than 9400 and 0.79 nM.
The matching figures for `CC[C@H](C)[C@@H]1NC(=O)[C@H](C)NC(=O)[C@H](CCCCN)NC(=O)[C@H](CC(C)C)NC(=O)[C@@H]2CSSC[C@@H](C(=O)N[C@@H](Cc3ccc(O)cc3)C(=O)N3CCC[C@H]3C(=O)N[C@@H](CCCNC(=N)N)C(N)=O)NC(=O)[C@H](Cc3c[nH]cn3)NC(=O)[C@@H]3CSSC[C@H](NC(=O)[C@H](CCC(=O)O)NC(=O)[C@H](C(C)C)NC(=O)[C@H](CO)NC(=O)[C@H](C)NC(=O)[C@H](CO)NC(=O)[C@@H](NC(=O)[C@H](CCCNC(=N)N)NC(=O)[C@H](CCSC)NC(=O)[C@H](CC(=O)O)NC(=O)[C@H](CCSC)NC(=O)[C@@H](N)CC(N)=O)CSSC[C@H](NC(=O)[C@H](CCCCN)NC(=O)CNC(=O)[C@H](Cc4ccccc4)NC(=O)[C@H]([C@@H](C)CC)NC(=O)[C@H](CO)NC(=O)CNC1=O)C(=O)N[C@@H](CCSC)C(=O)N[C@@H](CC(N)=O)C(=O)N[C@@H](CCCCN)C(=O)N[C@@H](CCCCN)C(=O)N3)C(=O)N[C@@H](CCCCN)C(=O)N[C@@H](CCC(N)=O)C(=O)N[C@@H](CCCCN)C(=O)N2` [compound 41] (H-NMDMRCSASVECKQKCLKAIGSIFGKCMNKKCHCYPR-NH2; disulfide 6-27, 12-32, 16-34): more than 16100, 1816, more than 16100 and 0.77 nM.
The matching figures for `CCCC[C@@H]1NC(=O)[C@@H]2CSSC[C@H](NC(=O)[C@H](CCCNC(=N)N)NC(=O)[C@H](CCCC)NC(=O)[C@H](CC(=O)O)NC(=O)[C@H](CCCC)NC(=O)[C@@H](N)CC(N)=O)C(=O)N[C@@H](CO)C(=O)N[C@@H](C)C(=O)N[C@@H](CO)C(=O)N[C@@H](CCCCN)C(=O)N[C@@H](CCC(=O)O)C(=O)N[C@H]3CSSC[C@H](NC(=O)[C@H](CCCCN)NC(=O)[C@H](CCCCN)NC(=O)[C@H](CC(N)=O)NC1=O)C(=O)N[C@@H](CCCCN)C(=O)N[C@H](C(=O)N[C@@H](Cc1ccc(O)cc1)C(=O)N1CCC[C@H]1C(=O)N[C@@H](CCCNC(=N)N)C(N)=O)CSSC[C@H](NC(=O)[C@H](CCCCN)NC(=O)[C@H](CCC(N)=O)NC(=O)[C@H](CCCCN)NC3=O)C(=O)N[C@@H](CC(C)C)C(=O)N[C@@H](CCCCN)C(=O)N[C@@H](C)C(=O)N[C@@H]([C@@H](C)CC)C(=O)NCC(=O)N[C@@H](CO)C(=O)N[C@@H]([C@@H](C)CC)C(=O)N[C@@H](Cc1ccccc1)C(=O)NCC(=O)N[C@@H](CCCCN)C(=O)N2` [compound 63] (H-N[Nle]D[Nle]RCSASKECKQKCLKAIGSIFGKC[Nle]NKKCKCYPR-NH2; disulfide 6-27, 12-32, 16-34): 3929, 587, more than 9600 and 0.68 nM.
For `CCCC[C@@H]1NC(=O)[C@@H]2CSSC[C@H](NC(=O)[C@H](CCCCN)NC(=O)[C@H](CO)NC(C)=O)C(=O)N[C@@H](CO)C(=O)N[C@@H](C)C(=O)N[C@@H](CO)C(=O)N[C@@H](C(C)C)C(=O)N[C@@H](CCC(=O)O)C(=O)N[C@H]3CSSC[C@H](NC(=O)[C@H](CCCCN)NC(=O)[C@H](CCCCN)NC(=O)[C@H](CC(N)=O)NC1=O)C(=O)N[C@@H](CCCCN)C(=O)N[C@H](C(=O)N[C@@H](Cc1ccc(O)cc1)C(=O)N1CCC[C@H]1C(=O)N[C@@H](CCCNC(=N)N)C(N)=O)CSSC[C@H](NC(=O)[C@H](CCCCN)NC(=O)[C@H](CCC(N)=O)NC(=O)[C@H](CCCCN)NC3=O)C(=O)N[C@@H](CC(C)C)C(=O)N[C@@H](CCCCN)C(=O)N[C@@H](C)C(=O)N[C@@H]([C@@H](C)CC)C(=O)NCC(=O)N[C@@H](CO)C(=O)N[C@@H]([C@@H](C)CC)C(=O)N[C@@H](Cc1ccccc1)C(=O)NCC(=O)N[C@@H](CCCCN)C(=O)N2` [compound 101] (Ac-SKCSASVECKQKCLKAIGSIFGKC[Nle]NKKCKCYPR-NH2; disulfide 3-24, 9-29, 13-31), the “Selectivity ratio Kv1.6/Kv1.3” value on human Kv1.6 was 1451. The “Selectivity ratio Kv1.2/Kv1.3” value on human Kv1.2 turned out to be 196. On human Kv1.1, the “Selectivity ratio Kv1.1/Kv1.3” value is more than 3000. The compound further yielded an IC50 against Rat whole blood of 0.36 nM.
The matching figures for `CCCC[C@H](NC(=O)[C@@H](N)CO)C(=O)N[C@@H](CC(=O)O)C(=O)N[C@@H](CCC(=O)O)C(=O)N[C@@H](CCCNC(=N)N)C(=O)N[C@H]1CSSC[C@@H]2NC(=O)[C@H](CCCCN)NC(=O)CNC(=O)[C@H](Cc3ccccc3)NC(=O)[C@H]([C@@H](C)CC)NC(=O)[C@H](CO)NC(=O)CNC(=O)[C@H]([C@@H](C)CC)NC(=O)[C@H](C)NC(=O)[C@H](CCCCN)NC(=O)[C@H](CC(C)C)NC(=O)[C@@H]3CSSC[C@@H](C(=O)N[C@@H](Cc4ccc(O)cc4)C(=O)N4CCC[C@H]4C(=O)N[C@@H](CCCNC(=N)N)C(N)=O)NC(=O)[C@H](CCCCN)NC(=O)[C@H](CSSC[C@H](NC(=O)[C@H](CCC(=O)O)NC(=O)[C@H](C(C)C)NC(=O)[C@H](CO)NC(=O)[C@H](C)NC(=O)[C@H](CO)NC1=O)C(=O)N[C@@H](CCCCN)C(=O)N[C@@H](CCC(N)=O)C(=O)N[C@@H](CCCCN)C(=O)N3)NC(=O)[C@H](CCCCN)NC(=O)[C@H](CCCCN)NC(=O)[C@H](CC(N)=O)NC(=O)[C@H](CCSC)NC2=O` [compound 76] (H-S[Nle]DERCSASVECKQKCLKAIGSIFGKCMNKKCKCYPR-NH2; disulfide 6-27, 12-32, 16-34): more than 10600, 430, more than 10600 and 0.55 nM.

The record behind these values is US20240182531A1, “KV1.3 Blockers” (priority 2021, published 2024).
